Laboratory results as given in PubChem BioAssay AID624167 (Sanford-Burnham Center for Chemical Genomics, 2012).
Active and inactive are the calls of the source.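 Rule for the calls: active = mean IC50 for reducing PEG3 promoter reporter signal at or below a set limit, with IC50 above the limit in both counter screens; inactive = the rest, including counter screen hits.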

Key:
GAPDH = assay: inhibition of PEG-3 promoter-driven reporter – cell-based, HeLa, luciferase, CREF/GAPDH counter-screen panel, dose response (AID 624167); conditions: CREF/GAPDH counter-screens
PEG-3 [1] = assay: as above; conditions: HeLa PEG-Prom luciferase reporter, overnight, CREF/GAPDH counter-screens
Rat fibroblasts (CREF) = assay: as above; conditions: CREF/GAPDH counter-screens
PEG-3 [2] = molecular target: PEG-3 (UniProt Q6IN02); assay: as above; conditions: HeLa PEG-Prom luciferase reporter, overnight, CREF/GAPDH counter-screens, mean of runs
[3] = as above; conditions: CREF/GAPDH counter-screens; GAPDH; mean of runs
[4] = run 1, dose range 1, individual replicate IC50 per panel
[5] = run 2, dose range 1, individual replicate IC50 per panel

Sequence of PEG-3 (UniProt Q6IN02) (Q6IN02 whole entry, looked up): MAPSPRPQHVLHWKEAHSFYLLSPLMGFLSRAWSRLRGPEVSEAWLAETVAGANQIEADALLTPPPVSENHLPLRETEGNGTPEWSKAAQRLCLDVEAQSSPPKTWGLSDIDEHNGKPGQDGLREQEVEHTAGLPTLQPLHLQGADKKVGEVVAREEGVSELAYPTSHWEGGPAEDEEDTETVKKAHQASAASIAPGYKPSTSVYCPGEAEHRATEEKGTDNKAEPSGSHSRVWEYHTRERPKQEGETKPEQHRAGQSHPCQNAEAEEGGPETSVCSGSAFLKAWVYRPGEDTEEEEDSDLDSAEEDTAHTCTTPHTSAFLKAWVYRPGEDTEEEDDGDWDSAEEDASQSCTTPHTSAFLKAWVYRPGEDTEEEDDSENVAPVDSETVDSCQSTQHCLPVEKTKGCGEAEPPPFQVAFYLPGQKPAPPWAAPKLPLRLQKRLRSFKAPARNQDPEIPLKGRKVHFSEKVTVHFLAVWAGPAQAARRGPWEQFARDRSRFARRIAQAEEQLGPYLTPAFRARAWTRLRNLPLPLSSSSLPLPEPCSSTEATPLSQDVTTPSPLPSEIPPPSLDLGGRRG

Compound | IC50 (GAPDH; [4]) | IC50 (GAPDH; [5]) | IC50 (PEG-3 [1]; [4]) | IC50 (PEG-3 [1]; [5]) | IC50 (Rat fibroblasts (CREF); mean of runs) | IC50 (Rat fibroblasts (CREF); [4]) | IC50 (Rat fibroblasts (CREF); [5]) | IC50 (PEG-3 [2]) | IC50 [3]
CCCCC(=O)NC(c1ccccc1)c1ccc2cccnc2c1O (stereo not drawn) | > 100 µM | > 100 µM | 2.84 µM | > 100 µM | > 100 µM (inactive) | > 100 µM | > 100 µM | inactive | > 100 µM (inactive)
CC(C)(C)c1ccc(Cn2c(=O)cnc3ccccc32)cc1 | 5.99 µM | 6.44 µM | 5.23 µM | > 100 µM | 51 µM (inactive) | > 100 µM | 1.93 µM | inactive | 6.22 µM
COc1ccc(N(C(=O)CCl)C(C(=O)NC2CCCCC2)c2cccnc2)cc1 (stereo not drawn) | 40.4 µM | 39.6 µM | 6.62 µM | 9.49 µM | 2.68 µM | 2.81 µM | 2.56 µM | 8.05 µM | inactive
O=c1c2ccccc2sc2nc(CCl)nn12 | 11.9 µM | 10.6 µM | 9.23 µM | 9.49 µM | > 100 µM (inactive) | > 100 µM | > 100 µM | 9.36 µM | 11.2 µM
COc1cc2nc(CN3CC=C(c4ccccc4)CC3)[nH]c(=O)c2cc1OC | 60.9 µM | 62.2 µM | 7.71 µM | 5.22 µM | > 100 µM (inactive) | > 100 µM | > 100 µM | 6.47 µM | inactive
Cc1nc(C)c(C(=O)N/N=C/c2cc(Br)ccc2O)s1 | > 100 µM | > 100 µM | 5.65 µM | > 100 µM | 64.9 µM (inactive) | 52.3 µM | 77.5 µM | inactive | > 100 µM (inactive)
O=C(CSC1c2ccccc2-c2ccccc21)N/N=C/c1ccccc1O | > 100 µM | > 100 µM | 3.04 µM | > 100 µM | 69.5 µM (inactive) | > 100 µM | 38.9 µM | inactive | > 100 µM (inactive)
CN(C)CC1CCC/C(=C\c2ccc(OC(=O)c3ccc(Cl)cc3)cc2)C1=O (stereo not drawn) | 49.8 µM | 57.7 µM | 6.76 µM | 4.86 µM | > 100 µM (inactive) | > 100 µM | > 100 µM | 5.81 µM | inactive
Cc1ccc(C)c(S(=O)(=O)N2CCN(c3ncnc4sccc34)CC2)c1 | 9.4 µM | 48 µM | 2.58 µM | 2.47 µM | 58.7 µM (inactive) | > 100 µM | 17.4 µM | 2.53 µM | 28.7 µM
O=C(O)c1ccc(CN2C(=O)c3cccc4c([N+](=O)[O-])ccc(c34)C2=O)cc1 | 21.9 µM | 23.4 µM | 12.1 µM | 8.2 µM | 31.5 µM | 29.5 µM | 33.4 µM | 10.1 µM | 22.7 µM
CN(C)c1c([N+](=O)[O-])cc(N2C(=O)C=CC2=O)cc1[N+](=O)[O-] | 24.6 µM | 22.7 µM | 7.49 µM | 5.58 µM | 14 µM | 10.7 µM | 17.3 µM | 6.53 µM | 23.6 µM
Cc1ccc(-n2c(N)c(C(=O)Nc3c(C)n(C)n(-c4ccccc4)c3=O)c3nc4ccccc4nc32)cc1 | 26.6 µM | 28.5 µM | 9.84 µM | 5.21 µM | 43.3 µM | 37.1 µM | 49.4 µM | 7.52 µM | 27.5 µM
